What was measured:
B16F10 cells = assay: In vitro phagocytosis of B16F10 cells by mouse macrophages; format: cell-based
Method: (§1) Eight-week-old C57BL/6 wild-type mice were obtained from Shanghai Slaccas Laboratory Animal Co., Ltd.. To obtain bone marrow derived macrophage (BMDM), femora and tibiae were flushed with ice-cold PBS, and erythrocytes were lysed with RBC lysis buffer. Then bone marrow cells were cultured in DMEM medium with 10 % FBS and 100 U/ mL penicillin, and 100 μg/ mL streptomycin in the presence of 50 ng/ mL mouse M-CSF (Macrophage-Colony Stimulating Factor) (PeproTech), 0.1 mM Sodium pyruvate (Gibco, Cat. # 11360-70) and 10 mM HEPES (Gibco, Cat. # 15630-080) for 7 days.
(§2) Phagocytosis assay were conducted as previously described. Briefly, macrophages were plated 1 x 10^5 cells per well in a 48-well plate in complete DMEM medium, supplemented with M-CSF overnight before the experiment. Cancer cells were stained with 5 μM CFSE at 37 °C for 10 min. Each phagocytotic reaction reported in this work was performed by co-culture of target cells and macrophages for 4 hours at 37 °C. Macrophages were identified with APC-labeled anti-F4/80 (Biolegend, Cat. # 123116), and flow cytometry (BD FACSCanto II, San Jose, CA) was performed. Phagocytosis was calculated as the percentage of CFSE^+F4/80^+ cells (Q2) among CFSE^+ cells (Q2+Q3): phagocytosis (%) = [Q2 / (Q2+ Q3)] x100 %.

Raji and B16F10 cells = assay: Cell viability (CCK-8) in Raji and B16F10 cells; format: cell-based; conditions: Fig. S5
Method: Raji cells (5000 cells/well), B16F10 cells (3000 cells/well) and BMDM (10000 cells/well) were plated in 96-well and cell viability was examined at the time points shown in the figures, with the help of Cell Counting Kit 8 (CCK-8) (Share-bio, Cat. # B-CCK8) according to the manufacturer’s recommendations.

pGlu-CD47 [1] = assay: hCD47-CC2C6 binding to various cancer cells (H929, HCT116, Huh7, SKOV3, SU-DHL-8, T24, H1299, MCF-7); format: cell-based, human; conditions: 500 nM, 48 h
Method: (§3) Binding to cell surface CD47 was assessed by staining cells with fluorochrome-labeled antibodies clone CC2C6 (BioLegend, Cat. # 323102) and B6H12 (Abcam, Cat. # ab134485) to human CD47 at a dilution of 1:100 in PBS containing 1% FBS (FACS buffer) for 30 min on ice, while protected from light. SIRPα binding to CD47 was assessed by incubating cells with PE labeled recombinant human SIRPα/ CD172α Protein, Fc tag (ACRO Biosystems, Cat. # SIA-HP252) or PE labeled mouse SIRPα Protein, His tag (ACRO Biosystems, Cat. # SIA-MP2H6) for 1 hour on ice, while protected from light.

pGlu-CD47 [2] = assay: Flow cytometry of pGlu-CD47 (hCD47-CC2C6 binding) in Raji cells; format: cell-based, human; conditions: 100 nM, 48 h
Method: as §3

CD47 = assay: Overall cell surface CD47 (hCD47-B6H12 binding) in HEK293T and Raji cells; format: cell-based, human; conditions: 100 nM, 48 h
Method: as §3

senescent cells = assay: Efferocytosis of apoptotic Jurkat cells by macrophages after co-culture with senescent cells; format: cell-based, mouse; conditions: pretreatment, 4 days, Fig. S7
Method: Apoptotic corpse generation. Jurkat cells were cultured in a T25 flask and apoptotic corpses were inducted by exposure to 5 μM camptothecin (Tsbiochem, CAT. # t2764) for 4 hours. Apoptosis induction was confirmed by apoptoic kit (Beyotime Biotechnology, Cat. # C1062M) through flow cytometry.
Senescence induction. B16F10 Cells were plated (96-well plate: 2000 cells/well) and rested over night before exposure to 10 μM cisplatin (APExBIO, Cat. # A8321). Cisplatin exposed cells were subsequently cultured for 4 or 7 days (without media change) and senescent cells were evaluated by β-Galactosidase staining using a SA-β-Gal staining Kit (Solarbio, Cat. # G1580-100T) according to the manufacturer’s instructions. Senescent cells were identified as blue stained cells under light microscopy.
Efferocytosis after co-culture. Senescent cells were plated in 96-well plates (2000 cells/well) and inducted as described before. QPCTL inhibitors were added every other day to the cells. For co-culture conditions BMDMs were added to the senescent cells. Senescent cells and macrophages were co-cultured for 16 hours. […] Following removal of unbound corpses by washing three times with PBS, macrophages were marked with APC-labeled anti-F4/80, and the co-culture was analyzed by flow cytometry. Efferocytosis was calculated as the percentage of CFSE^+F4/80^+ cells among F4/80^+ cells.

CD47/SIRPα = assay: Cell surface binding of human or mouse SIRPα protein to tumor cells (Raji, B16F10), flow cytometry; format: cell-based
Method: as §3

BMDM cells = assay: Cell viability and phagocytosis ability of BMDM; format: cell-based, mouse
Raji cells = assay: In vitro phagocytosis of Raji cells by mouse macrophages; format: cell-based, human
Method: as §1, §2

Cn1cncc1C1CCN(c2c(C#N)cccc2-c2ccc(F)nc2)CC1 [QP5038]
phagocytosis of B16F10 cells (B16F10 cells; 10 μM inhibitor 48 h, in combination with TA99, mouse macrophages): significantly boosted
flow cytometry quadrant Q1 (B16F10 cells; 48 h, 10 µM): 34.7
flow cytometry quadrant Q2 (CFSE+F4/80+ cells) (B16F10 cells; 48 h, 10 µM): 5.39
flow cytometry quadrant Q3 (B16F10 cells; 48 h, 10 µM): 59.0
flow cytometry quadrant Q4 (B16F10 cells; 48 h, 10 µM): 0.89
efficiency on phagocytosis compared with SEN177 and PQ912 (B16F10 cells; B16F10 and Raji cells, 10 μM 48 h, Fig. 1h–k, Fig. S6): much better than that of SEN177 and PQ912
cell viability (Raji and B16F10 cells): did not markedly impair
CD47 pyroglutamation in various types of cancer cells (pGlu-CD47 [1]): significantly attenuated
inhibitory effect on CD47 pyroglutamation compared to SEN177 and PQ912 (pGlu-CD47 [2]): superior inhibitory effects
overall cell surface levels of CD47 (CD47): did not alter
inhibitory effect of senescent cells on macrophage-mediated phagocytosis of apoptotic cells (senescent cells): could block the inhibitory effect
binding of human or mouse SIRPα protein to cell surface (CD47/SIRPα): significantly reduced
cell viability of macrophages (BMDM cells; Fig. S8a): did not attenuate
phagocytotic ability of macrophages (BMDM cells; apoptotic Jurkat cells, Fig. S8b): did not attenuate
phagocytosis of Raji cells (Raji cells; 10 μM inhibitor 48 h, synergized with rituximab, mouse macrophages): significantly boosted
flow cytometry quadrant Q1 (Raji cells; 48 h, 10 µM): 26.4
flow cytometry quadrant Q2 (CFSE+F4/80+ cells) (Raji cells; 48 h, 10 µM): 2.74
flow cytometry quadrant Q3 (Raji cells; 48 h, 10 µM): 70.1
flow cytometry quadrant Q4 (Raji cells; 48 h, 10 µM): 0.70
